One test has as its target T1, LRRC59 (Homo sapiens, UniProt Q96AG4).
T1 construct: endogenous in cells; host or cells: HL-60 (ATCC CCL-240)
T1 sequence (Q96AG4 1-307): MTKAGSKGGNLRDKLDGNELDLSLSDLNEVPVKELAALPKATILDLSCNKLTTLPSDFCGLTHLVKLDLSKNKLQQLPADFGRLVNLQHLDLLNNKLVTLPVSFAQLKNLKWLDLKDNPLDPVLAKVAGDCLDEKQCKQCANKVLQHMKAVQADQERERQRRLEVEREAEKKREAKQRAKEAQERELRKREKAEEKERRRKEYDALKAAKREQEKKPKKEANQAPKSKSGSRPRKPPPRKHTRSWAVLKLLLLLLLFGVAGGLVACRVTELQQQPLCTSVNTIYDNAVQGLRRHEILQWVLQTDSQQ
The test can be described thus: TPP-CCR in living HL-60 cells. In kind it is cell-based.

A further test has as its target T2, SCO1 (Homo sapiens, UniProt O75880).
T2 construct: endogenous in cells; host or cells: HL-60 (ATCC CCL-240)
T2 sequence (O75880 68-301): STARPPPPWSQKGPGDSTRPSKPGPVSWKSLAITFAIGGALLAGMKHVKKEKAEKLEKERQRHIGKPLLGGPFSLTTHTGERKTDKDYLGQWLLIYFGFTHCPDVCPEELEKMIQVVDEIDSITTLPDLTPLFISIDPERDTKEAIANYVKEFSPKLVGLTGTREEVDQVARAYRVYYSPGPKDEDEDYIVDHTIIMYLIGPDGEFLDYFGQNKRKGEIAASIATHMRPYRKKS
The test can be described thus: TPP-CCR in living HL-60 cells. Format: cell-based.

The mark [1] stands for this setting: living HL-60 cells, […] °C, TMT-MS.

We go through one compound from PMC9147192, “Small Molecule Arranged Thermal Proximity Coaggregation (smarTPCA)—A Novel Approach to Characterize Protein–Protein Interactions in Living Cells by Similar Isothermal Dose–Responses” (International Journal of Molecular Sciences, 2022).

Regarding `Cc1cnc(Nc2ccc(F)cc2Cl)nc1-c1c[nH]c(C(=O)N[C@H](CO)c2cccc(Cl)c2)c1` [ERK 11e], the Hill slope is 0.59 on LRRC59 (TPP-CCR, living cells, LRRC59) and 1.25 at SCO1 (TPP-CCR, living cells, SCO1). For the same compound, the “Hill slope (LRRC59)” value on LRRC59 (setting [1]) is on record as 0.59. The EC50 on LRRC59 (living HL-60 cells, […] °C, TMT-MS, read-out: pEC50 (LRRC59) (converted)) is 1480 nM; at SCO1 (living HL-60 cells, […] °C, TMT-MS, read-out: pEC50 (SCO1) (converted)), 2820 nM. The “Hill slope (SCO1)” value on SCO1 (setting [1]) is given as 1.25.

For orientation: Hill slope means the slope factor of the fitted curve.
